Laboratory results reported in the supplement of paper PMC4932681.

How the values were obtained:
ZR-75-1 Tam1 [1] = assay: relative IC50 (midpoint of fitted logistic curve, plateau may be below 50% inhibition; CellTiter-Glo viability); higher = less potent; settings: 4-OH-tamoxifen in medium 1 µM; 72 h
Description: (§1)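 FIMM FO2B library drugs were plated at 5 concentrations spanning a 10,000-fold range in 384-well plates. Cells were incubated for 72 h at 37 °C and viability was read by CellTiter-Glo, normalised to DMSO (0% inhibition) and 100 µM benzethonium chloride (100% inhibition). IC50 values come from logistic dose-response fits (Breeze pipeline). Tamoxifen-resistant lines and the 'in 1µM tamoxifen' parental arms were tested in medium with 1 µM 4-OH-tamoxifen.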

ZR-75-1 Tam2 [2] = assay: as above; settings: 4-OH-tamoxifen in medium 1 µM; 72 h
Description: as §1

MCF-7 Tam1 [3] = assay: as above; settings: 4-OH-tamoxifen in medium 1 µM; 72 h
Description: as §1

T-47D Tam1 [4] = assay: as above; settings: 4-OH-tamoxifen in medium 1 µM; 72 h
Description: as §1

T-47D [5] = assay: as above; settings: 72 h
Description: as §1

BT-474 Tam2 [6] = assay: as above; settings: 4-OH-tamoxifen in medium 1 µM; 72 h
Description: as §1

MCF-7 [7] = assay: as above; settings: 72 h
Description: as §1

BT-474 Tam1 [8] = assay: as above; settings: 4-OH-tamoxifen in medium 1 µM; 72 h
Description: as §1

ZR-75-1 [9] = assay: as above; settings: 72 h
Description: as §1

BT-474 [10] = assay: as above; settings: 72 h
Description: as §1

ZR-75-1 Tam1 [11] = assay: drug sensitivity score (DSS) (DSS (dimensionless)); higher = more sensitive; extreme values may be limits of the assay; settings: 4-OH-tamoxifen in medium 1 µM; 72 h
Description: (§2)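 FIMM FO2B library drugs were tested at 5 concentrations (10,000-fold range) for 72 h, with CellTiter-Glo viability normalised to DMSO and benzethonium chloride controls. The Drug Sensitivity Score (DSS) is computed from the fitted logistic dose-response curve (area-based; 0 = inactive). Resistant lines and the 'in 1µM tamoxifen' arms were tested in 1 µM 4-OH-tamoxifen.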

ZR-75-1 Tam2 [12] = assay: as above; settings: 4-OH-tamoxifen in medium 1 µM; 72 h
Description: as §2

MCF-7 Tam1 [13] = assay: as above; settings: 4-OH-tamoxifen in medium 1 µM; 72 h
Description: as §2

T-47D Tam1 [14] = assay: as above; settings: 4-OH-tamoxifen in medium 1 µM; 72 h
Description: as §2

T-47D [15] = assay: as above; settings: 72 h
Description: as §2

BT-474 Tam2 [16] = assay: as above; settings: 4-OH-tamoxifen in medium 1 µM; 72 h
Description: as §2

T-47D Tam2 = assay: as above; settings: 4-OH-tamoxifen in medium 1 µM; 72 h
Description: as §2

MCF-7 [17] = assay: as above; settings: 72 h
Description: as §2

BT-474 Tam1 [18] = assay: as above; settings: 4-OH-tamoxifen in medium 1 µM; 72 h
Description: as §2

ZR-75-1 [19] = assay: as above; settings: 72 h
Description: as §2

BT-474 [20] = assay: as above; settings: 72 h
Description: as §2

SMILES | relative IC50 (ZR-75-1 Tam1 [1]) | relative IC50 (ZR-75-1 Tam2 [2]) | relative IC50 (MCF-7 Tam1 [3]) | relative IC50 (T-47D Tam1 [4]) | relative IC50 (T-47D [5]; 4-OH-tamoxifen in medium 0 µM) | relative IC50 (T-47D [5]; 4-OH-tamoxifen in medium 1 µM) | relative IC50 (BT-474 Tam2 [6]) | relative IC50 (MCF-7 [7]; 4-OH-tamoxifen in medium 0 µM) | relative IC50 (BT-474 Tam1 [8]) | relative IC50 (ZR-75-1 [9]; 4-OH-tamoxifen in medium 0 µM) | relative IC50 (ZR-75-1 [9]; 4-OH-tamoxifen in medium 1 µM) | relative IC50 (BT-474 [10]; 4-OH-tamoxifen in medium 0 µM) | relative IC50 (BT-474 [10]; 4-OH-tamoxifen in medium 1 µM) | drug sensitivity score (ZR-75-1 Tam1 [11]) | drug sensitivity score (ZR-75-1 Tam2 [12]) | drug sensitivity score (MCF-7 Tam1 [13]) | drug sensitivity score (T-47D Tam1 [14]) | drug sensitivity score (T-47D [15]; 4-OH-tamoxifen in medium 0 µM) | drug sensitivity score (T-47D [15]; 4-OH-tamoxifen in medium 1 µM) | drug sensitivity score (BT-474 Tam2 [16]) | drug sensitivity score (T-47D Tam2) | drug sensitivity score (MCF-7 [17]; 4-OH-tamoxifen in medium 0 µM) | drug sensitivity score (MCF-7 [17]; 4-OH-tamoxifen in medium 1 µM) | drug sensitivity score (BT-474 Tam1 [18]) | drug sensitivity score (ZR-75-1 [19]; 4-OH-tamoxifen in medium 0 µM) | drug sensitivity score (ZR-75-1 [19]; 4-OH-tamoxifen in medium 1 µM) | drug sensitivity score (BT-474 [20]; 4-OH-tamoxifen in medium 0 µM) | drug sensitivity score (BT-474 [20]; 4-OH-tamoxifen in medium 1 µM) | relative IC50 (MCF-7 [7]; 4-OH-tamoxifen in medium 1 µM)
O=P1(N(CCCl)CCCl)NCCCO1 (stereo not drawn) [Clafen (Cyclophosphamide, Endoxan)] | > 40000 nM | > 40000 nM | > 40 µM | > 40000 nM | > 40000 nM | > 40000 nM | > 40 µM | > 40000 nM | > 40 µM | > 40000 nM | > 40000 nM | > 40 µM | > 40 µM | 0 | 0 | 0 | 0 | 0 | 0 | 0 | 0.114 | 0 | 0.034 | 0 | 0 | 0 | 0 | 0 | –
CCc1c2c(nc3ccc(OC(=O)N4CCC(N5CCCCC5)CC4)cc13)-c1cc3c(c(=O)n1C2)COC(=O)[C@]3(O)CC [Irinotecan] | 1390 nM | 1590 nM | > 10 µM | 1730 nM | 1240 nM | > 10000 nM | > 10 µM | – | > 10 µM | 1710 nM | – | > 10 µM | > 10 µM | 3.21 | 3.94 | 0 | 2.72 | 4.39 | 0 | 0 | 0.581 | 1.56 | 1.5 | 0 | 3.43 | 1.34 | 0 | 0 | –
C=C1C[C@@H]2[C@H](CC[C@]3(C)C(=O)CC[C@@H]23)[C@@]2(C)C=CC(=O)C=C12 [Exemestane] | > 10000 nM | > 10000 nM | > 10 µM | > 10000 nM | > 10000 nM | > 10000 nM | > 10 µM | – | > 10 µM | > 10000 nM | > 10000 nM | > 10 µM | > 10 µM | 0 | 0 | 0 | 0 | 0 | 0 | 0 | 0.965 | 1.3 | 0 | 0 | 0 | 0 | 0 | 0 | –
Cn1c(=O)n(-c2ccc(C(C)(C)C#N)cc2)c2c3cc(-c4cnc5ccccc5c4)ccc3ncc21 [Dactolisib (NVP-BEZ235)] | 7.16 nM | 13.9 nM | 0.0527 µM | 7.44 nM | 27.8 nM | 117 nM | – | 6.68 nM | 0.0863 µM | 9.3 nM | 9.17 nM | – | 0.0609 µM | 12.4 | 12.6 | 3.91 | 13.4 | 10.4 | 7.65 | 4.69 | 4.46 | 18.3 | 11.4 | 4.98 | 12.9 | 10.4 | 6.54 | 5.55 | 8.94 nM
